Test results reported in PubChem BioAssay AID256 (DTP/NCI, 2004).
“And” between values parts separate entries of the source, which are not always exact repeats. Equal entries are not always repeated. Inconclusive results and toxic doses are left out. How the source made its calls: active means survival T/C of 150% or more; inactive means T/C below 125% in these data.

System: CD2F1 mice, L1210 leukemia ip, survival T/C
Test: NCI In Vivo Anticancer Drug Screen. Data for tumor model L1210 Leukemia (intraperitoneal) in CD2F1 (CDF1) mice
Details: higher = longer survival
Method in brief: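 Transplantable tumor in mice; compound-treated vs vehicle-treated groups. Read-out = treated/control ratio of the measured endpoint.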

[1] = endpoint: mean survival time, dose: 100.0 mg/kg/injection, schedule: Q01DX009 (ip), vehicle: saline with Tween-80
[2] = endpoint: mean survival time, dose: 200.0 mg/kg/injection, schedule: Q01DX009 (ip), vehicle: saline with Tween-80
[3] = endpoint: mean survival time, dose: 400.0 mg/kg/injection, schedule: Q01DX009 (ip), vehicle: saline with Tween-80
[4] = endpoint: mean survival time, dose: 25.0 mg/kg/injection, schedule: Q04DX003 (ip), vehicle: saline with Tween-80
[5] = endpoint: mean survival time, dose: 50.0 mg/kg/injection, schedule: Q04DX003 (ip), vehicle: saline with Tween-80
[6] = endpoint: mean survival time, dose: 100.0 mg/kg/injection, schedule: Q04DX003 (ip), vehicle: saline with Tween-80
[7] = endpoint: mean survival time, dose: 400.0 mg/kg/injection, schedule: Q04DX003 (ip), vehicle: saline with Tween-80
[8] = endpoint: mean survival time, dose: 25.0 mg/kg/injection, schedule: Q01DX009 (ip), vehicle: acetone
[9] = endpoint: mean survival time, dose: 50.0 mg/kg/injection, schedule: Q01DX009 (ip), vehicle: acetone
[10] = endpoint: mean survival time, dose: 25.0 mg/kg/injection, schedule: Q01DX009 (ip), vehicle: saline with Tween-80

Measured: T/C

CCCNCCNc1ccc(NCCNCCC)c2c1C(=O)c1ccccc1C2=O
inactive: endpoint: mean survival time, dose: 4.0 mg/kg/injection, schedule: Q01DX009 (ip), vehicle: acid diluted with saline 100 % of control | endpoint: mean survival time, dose: 8.0 mg/kg/injection, schedule: Q01DX009 (ip), vehicle: acid diluted with saline 110 % of control | endpoint: mean survival time, dose: 16.0 mg/kg/injection, schedule: Q01DX009 (ip), vehicle: acid diluted with saline 110 % of control | endpoint: mean survival time, dose: 32.0 mg/kg/injection, schedule: Q01DX009 (ip), vehicle: acid diluted with saline 93 % of control

CNc1ncnc2c(C3OC(CO)C(O)C3O)[nH]nc12 (centres undefined)
inactive: endpoint: mean survival time, dose: 25.0 mg/kg/injection, schedule: Q01DX005 (ip), vehicle: water 108 % of control | endpoint: mean survival time, dose: 50.0 mg/kg/injection, schedule: Q01DX005 (ip), vehicle: water 120 % of control | endpoint: mean survival time, dose: 100.0 mg/kg/injection, schedule: Q01DX005 (ip), vehicle: water 96 % of control

CC(=O)C1=C(C)NC(C)=C(C(C)=O)C1c1ccccc1
inactive: [1] 103 % of control | [2] 107 % of control | [3] 107 % of control

[N-]=[N+]=NC1=C(c2ccccc2)C(=O)C=C(c2ccccc2)C1=O
inactive: [4] 94 % of control | [5] 94 % of control | [6] 101 % of control and 102 % of control | [7] 101 % of control

CC(=O)N1NC2C(=O)N(C3CCCCC3)CC2C1c1ccccc1 (centres undefined)
inactive: [1] 93 % of control | [2] 100 % of control | [3] 93 % of control

CCN(CC)c1ccc(C)cc1Cl
inactive: endpoint: mean survival time, dose: 100.0 mg/kg/injection, schedule: Q04DX003 (ip), vehicle: saline sonified 102 % of control

O=c1[nH]c2ccccc2o1
inactive: endpoint: mean survival time, dose: 12.5 mg/kg/injection, schedule: Q01DX009 (iv), vehicle: methylcellulose (MC) 95 % of control | endpoint: mean survival time, dose: 25.0 mg/kg/injection, schedule: Q01DX009 (iv), vehicle: methylcellulose (MC) 90 % of control | endpoint: mean survival time, dose: 50.0 mg/kg/injection, schedule: Q01DX009 (iv), vehicle: methylcellulose (MC) 94 % of control

CC(C)CN1CCCC(=O)C(O)CCC1 (centres undefined)
inactive: [8] 98 % of control | [9] 93 % of control

CNC(=O)c1ccccc1N=NN(C)C
inactive: endpoint: mean survival time, dose: 18.75 mg/kg/injection, schedule: Q01DX009 (ip), vehicle: Klucel (hydroxypropylcellulose) (HPC) 98 % of control and 103 % of control and 106 % of control | endpoint: mean survival time, dose: 37.5 mg/kg/injection, schedule: Q01DX009 (ip), vehicle: Klucel (hydroxypropylcellulose) (HPC) 122 % of control and 98 % of control and 105 % of control | endpoint: mean survival time, dose: 75.0 mg/kg/injection, schedule: Q01DX009 (ip), vehicle: Klucel (hydroxypropylcellulose) (HPC) 122 % of control

Cc1cc(OC(=O)N2CCCCC2)c(C(C)C)cc1[N+](C)(C)C
inactive: endpoint: mean survival time, dose: 0.06 mg/kg/injection, schedule: Q01DX009 (ip), vehicle: saline 95 % of control | endpoint: mean survival time, dose: 0.07 mg/kg/injection, schedule: Q04DX003 (ip), vehicle: saline sonified 97 % of control | endpoint: mean survival time, dose: 0.13 mg/kg/injection, schedule: Q04DX003 (ip), vehicle: saline sonified 106 % of control | endpoint: mean survival time, dose: 0.25 mg/kg/injection, schedule: Q04DX003 (ip), vehicle: saline sonified 100 % of control

COc1ccc(C(=O)CCN2CCC(O)(c3ccccc3)CC2)cc1
inactive: endpoint: mean survival time, dose: 12.5 mg/kg/injection, schedule: Q01DX009 (ip), vehicle: saline with Tween-80 93 % of control | [10] 97 % of control | endpoint: mean survival time, dose: 50.0 mg/kg/injection, schedule: Q01DX009 (ip), vehicle: saline with Tween-80 89 % of control

N=c1c2ncn(C3OC(CO)C(O)C3O)c2ncn1Cc1ccc([N+](=O)[O-])cc1 (centres undefined)
inactive: endpoint: mean survival time, dose: 100.0 mg/kg/injection, schedule: Q01DX001 (ip), vehicle: carboxymethylcellulose (CMC) 97 % of control | endpoint: mean survival time, dose: 200.0 mg/kg/injection, schedule: Q01DX001 (ip), vehicle: carboxymethylcellulose (CMC) 104 % of control | endpoint: mean survival time, dose: 400.0 mg/kg/injection, schedule: Q01DX001 (ip), vehicle: carboxymethylcellulose (CMC) 97 % of control

C=C(Cl)CSCC
inactive: [8] 114 % of control | [9] 120 % of control

C=C(Cl)C(=NC(C)(C)C)Nc1ccccc1C
inactive: endpoint: median survival time, dose: 3.12 mg/kg/injection, schedule: Q01DX009 (ip), vehicle: Klucel (hydroxypropylcellulose) (HPC) 101 % of control | endpoint: median survival time, dose: 6.25 mg/kg/injection, schedule: Q01DX009 (ip), vehicle: Klucel (hydroxypropylcellulose) (HPC) 109 % of control | endpoint: median survival time, dose: 12.5 mg/kg/injection, schedule: Q01DX009 (ip), vehicle: Klucel (hydroxypropylcellulose) (HPC) 118 % of control | endpoint: median survival time, dose: 25.0 mg/kg/injection, schedule: Q01DX009 (ip), vehicle: Klucel (hydroxypropylcellulose) (HPC) 114 % of control | endpoint: median survival time, dose: 50.0 mg/kg/injection, schedule: Q01DX009 (ip), vehicle: Klucel (hydroxypropylcellulose) (HPC) 114 % of control | endpoint: median survival time, dose: 50.0 mg/kg/injection, schedule: Q01DX009 (ip), vehicle: saline 103 % of control | endpoint: median survival time, dose: 100.0 mg/kg/injection, schedule: Q01DX009 (ip), vehicle: saline 108 % of control | endpoint: median survival time, dose: 200.0 mg/kg/injection, schedule: Q01DX009 (ip), vehicle: saline 111 % of control

O=C1C=C(N2CCOCC2)C(=O)c2nccnc21
inactive: [4] 95 % of control | [5] 95 % of control

CCCCCCCCCCCCCCCCOC(=O)c1cc([N+](=O)[O-])cc([N+](=O)[O-])c1Sc1ncnc2nc[nH]c12
inactive: endpoint: mean survival time, dose: 0.63 mg/kg/injection, schedule: Q01DX005 (ip), vehicle: other 105 % of control | endpoint: mean survival time, dose: 1.25 mg/kg/injection, schedule: Q01DX005 (ip), vehicle: other 108 % of control | endpoint: mean survival time, dose: 2.5 mg/kg/injection, schedule: Q01DX005 (ip), vehicle: other 113 % of control | endpoint: mean survival time, dose: 5.0 mg/kg/injection, schedule: Q01DX005 (ip), vehicle: other 113 % of control | endpoint: mean survival time, dose: 10.0 mg/kg/injection, schedule: Q01DX005 (ip), vehicle: other 120 % of control | endpoint: mean survival time, dose: 12.5 mg/kg/injection, schedule: Q01DX005 (ip), vehicle: other 109 % of control | endpoint: mean survival time, dose: 15.7 mg/kg/injection, schedule: Q01DX005 (ip), vehicle: other 106 % of control | endpoint: mean survival time, dose: 25.0 mg/kg/injection, schedule: Q01DX005 (ip), vehicle: other 117 % of control and 112 % of control | endpoint: mean survival time, dose: 31.3 mg/kg/injection, schedule: Q01DX005 (ip), vehicle: other 124 % of control | endpoint: mean survival time, dose: 50.0 mg/kg/injection, schedule: Q01DX005 (ip), vehicle: other 115 % of control and 122 % of control | endpoint: mean survival time, dose: 100.0 mg/kg/injection, schedule: Q01DX005 (ip), vehicle: other 116 % of control | endpoint: mean survival time, dose: 400.0 mg/kg/injection, schedule: Q01DX005 (ip), vehicle: other 118 % of control

CCC(CC)C(=O)OCCCCOC(=O)C(CC)CC
inactive: endpoint: mean survival time, dose: 100.0 mg/kg/injection, schedule: Q04DX003 (ip), vehicle: saline 93 % of control | endpoint: mean survival time, dose: 200.0 mg/kg/injection, schedule: Q04DX003 (ip), vehicle: saline 107 % of control | endpoint: mean survival time, dose: 400.0 mg/kg/injection, schedule: Q04DX003 (ip), vehicle: saline 107 % of control

C=C(C(=O)O)C(N)C(=O)O (centres undefined)
inactive: endpoint: median survival time, dose: 25.0 mg/kg/injection, schedule: Q01DX009 (ip), vehicle: suspension in saline 96 % of control | endpoint: median survival time, dose: 50.0 mg/kg/injection, schedule: Q01DX009 (ip), vehicle: suspension in saline 108 % of control | endpoint: median survival time, dose: 100.0 mg/kg/injection, schedule: Q01DX009 (ip), vehicle: suspension in saline 103 % of control | endpoint: median survival time, dose: 200.0 mg/kg/injection, schedule: Q01DX009 (ip), vehicle: suspension in saline 94 % of control | endpoint: median survival time, dose: 400.0 mg/kg/injection, schedule: Q01DX009 (ip), vehicle: suspension in saline 91 % of control

Nc1cccc(C(=O)O)c1C(=O)O
inactive: [10] 93 % of control

c1ccc(-c2cscc2-c2ccccc2)cc1
inactive: endpoint: mean survival time, dose: 100.0 mg/kg/injection, schedule: Q01DX001 (ip), vehicle: saline with Tween-80 96 % of control | endpoint: mean survival time, dose: 200.0 mg/kg/injection, schedule: Q01DX001 (ip), vehicle: saline with Tween-80 96 % of control | endpoint: mean survival time, dose: 400.0 mg/kg/injection, schedule: Q01DX001 (ip), vehicle: saline with Tween-80 96 % of control

O=C(O)/C=C/C(=O)Nc1cccc2cccnc12
inactive: [1] 93 % of control | [6] 98 % of control | [2] 102 % of control | endpoint: mean survival time, dose: 200.0 mg/kg/injection, schedule: Q04DX003 (ip), vehicle: saline with Tween-80 93 % of control | [3] 100 % of control | [7] 98 % of control

CC(=O)OC1CCC2(C)C(=CCC3C2CCC2(C)C(C(C)CCC(=O)O)CCC32)C1 (centres undefined)
inactive: [1] 95 % of control | [2] 95 % of control | [3] 96 % of control

CCCCCCCCCCCC(C)CC(CN)C(=O)OCC (centres undefined)
inactive: endpoint: mean survival time, dose: 100.0 mg/kg/injection, schedule: Q04DX002 (ip), vehicle: saline 92 % of control | endpoint: mean survival time, dose: 200.0 mg/kg/injection, schedule: Q04DX002 (ip), vehicle: saline 100 % of control | endpoint: mean survival time, dose: 400.0 mg/kg/injection, schedule: Q04DX002 (ip), vehicle: saline 100 % of control
